In one data set the test system is Magel2 KO neonates. Kind of data set: Injection of oxytocin or vasopressin in Magel2 KO neonates: rescue of feeding and survival. The following applies: AVP injections, whatever the dose injected. In kind it is in vivo, mouse. The protocol:
Three to 5 hours after delivery, wild type pups or pups issued from a cross between an heterozygote (+/−) male with wild type females were temporally removed (10 min) from their mother, weighted and given a single s.c. (in the ventral region at the level of floating ribs) injection (20 μl) of isotonic saline or 2 μg oxytocin (Phoenix Pharmaceuticals. Inc., Catalog No. 051-01) dissolved in isotonic saline (20 μl). […] Following the same protocol, we injected vasopressin (Phoenix Pharmaceuticals. Inc., Catalog No. 065-07) at different doses. At P2, pups were scarified to be genotyped.
The results obtained with the injection of SSR 126768A OTA let us think that we might restore a normal feeding behaviour in Magel2 KO newborns with an OT injection just after birth. Early neonatal manipulation of OT was reported in the literature without alterations of the postnatal development (Cushing, B. S., et Al., 2003; Yamamoto, Y., et al., 2004; Saito, O., et Al., 2007). Initially, 28 wild type newborns were injected with an isotonic saline (20 μl) and 4 of them died at P1. Another cohort of 28 wild type newborns, […] on hypothalamic nuclei one hour after the injection (Cushing, B. S., et Al., 2003; Yamamoto, Y., et al., 2004). We then decided to inject 2 μg of OT in Magel2 KO and wild type newborns, 3 to 5 hours after birth, the time when wild type newborns started to suckle but not the mutant neonates. […] The level of lethality is similar after an injection of saline solution (4/28 dead pups) or oxytocin (3/28 dead pups) and is in the range of lethality normally observed in wild type cohorts. In a second step, ten litters including a total of 37 wild type and 40 Magel2 KO neonates, were injected with an oxytocin solution. At P2, we observed that 95% (35/37) of wild type and 93% (37/40) of Magel2 mutant newborns survived with milk previously detected in their stomach at P1. In parallel, we controlled that the rescue of Magel2 KO neonates was specifically due to the oxytocin injection and not to the injection stress and/or handling of neonates. […]

Data set [1] relates to wild-type C57Bl6/J newborns. Kind of data set: Injection of SSR126768A (antagonist of the oxytocin receptor) in wild type newborns: feeding and lethality. In kind it is in vivo, mouse. The protocol:
A first cohort of C57B16 wild type newborns were removed from their mothers 1-1h30 after their birth and very rapidly were given a single s.c. injection (20 μl) of vehicle control (0.2% ethanol in distilled water) or 3 μg (in 20 μl of 0.2% ethanol in distilled water) of SSR126768A (OTA). […] of C57B16 wild type newborns were injected 12-24 hours after birth. The dose of OTA used was based on previous publications (Serradeil-Le Gal, C., et al., 2004).
We chose to use the Oxytocin antagonist SSR126768A (a gift from C. Serradeil-Le Gal, Sanofi-Synthélabo Recherche, Toulouse, France) because it was already well characterized.
Taking in account all the previous data, we hypothesized that OT deficiency might be responsible for the Magel2 KO phenotype at birth. Consequently, we decided to inject the SSR 126768A compound, a specific OT antagonist (OTA) with high affinity with the OT receptor (Serradeil-Le Gal, C., et al., 2004). We proceeded to a single injection of 3 μg (20 μl) in 68 wild-type C57B16/J newborns (9 litters), 1 to 1.5 hour after birth. In parallel, in the same conditions, we injected the vehicle […] in 48 wild-type C57B16/J newborns (7 litters). Then, 12 (+/−3) hours after the injection time, we observed than 54% (37/68) of newborns injected with OTA had no milk in their stomach versus 4% (2/48) of newborns injected with vehicle. At P1 (24-36 h old), we observed than 48% (33/68) of newborns injected with OTA were dead versus 4% (2/48) of newborns injected with vehicle control. […] Thus, the SSR 126768A OTA at a dose of 3 μg appeared to have a specific effect, preventing the feeding process and leading to death, only when it was injected in a specific window of time after birth, before the suckling activity was initiated. This phenotype simulates the Magel2 KO feeding phenotype at birth.

The test system of the next data set is OTR. The following applies: cited from earlier work.
The next data set relates to rats. As to conditions: cited from earlier work.

Structures are written as SMILES.

On to `NC(=O)CC[C@@H]1NC(=O)[C@H](Cc2ccccc2)NC(=O)[C@H](Cc2ccc(O)cc2)NC(=O)[C@@H](N)CSSC[C@@H](C(=O)N2CCC[C@H]2C(=O)N[C@@H](CCCN=C(N)N)C(=O)NCC(N)=O)NC(=O)[C@H](CC(N)=O)NC1=O` [AVP, Arginine-Vasopressin], for which the “rescue of the phenotype of Magel2 deficient neonates” value in the data set on Magel2 KO neonates is on record as “did not rescue the phenotype”.
As to `CCN(Cc1cccnc1)C(=O)c1ccc(Cl)c([C@]2(C)C(=O)N(Cc3ccc(OC)cc3OC)c3ccc(Cl)cc32)c1.Cl` [SSR126768A, 4-chloro-3-[(3R)-(+)-5-chloro-1-(2,4-dimethoxybenzyl)-3-methyl-2-oxo-2,3-dihydro-1H-indol-3-yl]-N-ethyl-N-(3-pyridylmethyl)-benzamide, hydrochloride], the “survival 48 hours later” value in data set [1] (3 μg in 20 μl injected 12-24 hours after birth, 42 wild-type pups) is reported as “all of them survived”. For the same compound, the “newborns dead at P1” value in data set [1] (single s.c. injection of 3 μg, 1 to 1.5 hour after birth, P1 (24-36 h old), vehicle 4% (2/48)) is 48%. Also, the “newborns with no milk in their stomach” value in data set [1] (single s.c. injection of 3 μg, 1 to 1.5 hour after birth, observed 12 (+/−3) hours after injection, vehicle 4% (2/48)) is on record as 54%. Also, in the data set with OTR, the selectivity result is listed as “high selectivity”. Moreover, in the data set with OTR (different species, including mouse), the “affinity for OTR” value is listed as “high affinity”. Moreover, the “lethality or secondary effect” value in the data set on rats (1, 3 or 10 μg/g in rats) is listed as “without inducing lethality or any strong secondary effect”. Also, the “duration of effect on uterus” value with rats (after administration of a dose as low as 3 μg/g) is 24 h.
